Assay [1] has as its system halitosis subjects. Kind of assay: Volatile sulphur compound (VSC) breath readings by halimeter in halitosis subjects. In kind it is in vivo, human. Conditions: three recalled subjects. An excerpt:
Sixty-five subjects were screened for volatile sulphur compound (VSC) breath readings by halimeter (Interscan Corp., Chatsworth, Calif.). VSC readings in persons with normal breath are typically in the range of 80-150 ppb. At levels of 200-300 ppb oral malodor is noticeable by an observer standing close to the patient. At 350-400 ppb, the odour is noticeable by an observer standing several feet away from the patient. Those subjects with breath scores of greater than 200 ppb on two separate visits were recruited for the study (n=13). Each signed an Informed Consent under a protocol approved by the Otago Ethics Committee. Subject's upon their second positive visit undertook a mechanical and chemical treatment of their mouths at the laboratory. This consisted of teeth and tongue brushing (2 minutes with Colgate Total™ [0.3% w/v triclosan], Colgate-Palmolive, N.Y., USA), tongue scraping for 30 seconds, brushing teeth and tongue with a CHX gel (Colgate, Australia) (Perioguard 2.0% CHX mouth gel, 2 minutes) and followed by a 30 second CHX rinse (0.2% CHX, 10% ethanol alcohol). This was followed at intervals by the sucking of a lozenge (BLIS Technologies Limited, Wellington, New Zealand) (commencing 2 hours after treatment and typically 2 hours apart, 4 times daily), each containing>1×10^9 colony forming units of streptomycin-resistant S. salivarius K12. […]

Assay [2] has as its system halitosis subjects. The experiment in a line: Organoleptic assessment of subjects' saliva. Particulars: three recalled subjects; 3-day CHX regimen only; seventh day; scale of 0-5. The format is in vivo, human. From the text: Sixty-five subjects were screened for volatile sulphur compound (VSC) breath readings by halimeter (Interscan Corp., Chatsworth, Calif.). VSC readings in persons with normal breath are typically in the range of 80-150 ppb. At levels of 200-300 ppb oral malodor is noticeable by an observer standing close to the patient. At 350-400 ppb, the odour is noticeable by an observer standing several feet away from the patient. Those subjects with breath scores of greater than 200 ppb on two separate visits were recruited for the study (n=13). Each signed an Informed Consent under a protocol approved by the Otago Ethics Committee. Subject's upon their second positive visit undertook a mechanical and chemical treatment of their mouths at the laboratory. […]
Fresh saliva samples and tongue swabs were tested for N-benzoyl-DL-arginine-2-naphthylamide (BANA) hydrolysis (BANAMet ILC, Ann Arbor, Mich.), since positive scores by the BANA test have previously been associated with the presence of malodour-forming enzyme activities of certain oral bacterial species (1, 3). […] The samples were graded according to the same criteria used to assess breath air of halitosis sufferers (7), using a scale of 0-5, with 0 equating to no odour detected and 5 the most severe.

The structures appear in SMILES notation. Several values for one entry are separate records, joined by “and”; a condition that tells them apart may be missing. Equal values may be shown once.

As to `[H]/N=C(\N/C(=N/[H])NCCCCCCNC(=N)NC(=N)Nc1ccc(Cl)cc1)Nc1ccc(Cl)cc1` [CHX, chlorhexidine], in the assay on halitosis subjects [1], the “change in VSC, organoleptic or BANA readings after treatment with CHX only” value is “no decrease”. The “Post CHX treatment Saliva organoleptic” value in the assay with halitosis subjects [2] was 2 and 3.

Source of the values: US8057790B2, “Treatment of malodour” (Blis Technologies Limited, priority 2003, dated 2011).
